Assay results published in patent US20220048915A1 (SHANGHAI PHARMACEUTICALS HOLDING CO., LTD., priority 2018, published 2022).
Several values for one entry are separate records, joined by “and”; a condition that tells them apart may be missing. Equal entries are not always repeated. One block for each compound: values may come before it.

Tests used:
p38 kinase = details: CN108349964A, Table 7 on page 74; read-out: IC50 grade for the inhibitory activity of p38 kinase; cited from earlier work
[1] = Pharmacokinetic properties in mice; assay type: in vivo, ICR mice
Procedure: Forty-eight male ICR mice, weighing 18-22 g (provided by Shanghai Xipuerbikai Laboratory Animal Co., Ltd, Certificate No.: 20130016008116). The mice were […] for 12-16 hours before the experiment but water was allowed.
Blood samples were collected from the fundus vein of mice before and at 2, 5, 15, 30, 60, 90, 120, 240, 480, 600, and 1440 minutes of the administration, respectively.
Blood samples were collected from the fundus vein of mice before and at 5, 15, 30, 60, 90, 120, 240, 480 and 1440 minutes of administration, respectively.
2-3 time points were taken for each mouse. The mice were sacrificed at 5, 15, 30, 60 and 1440 minutes after the administration (3 mice per time point), and the brains were taken, rinsed with saline, dried on filter paper and weighed.
(§1) Blood samples were centrifuged at 8000 rpm for 5 minutes, and supernatant plasma was taken. To 50 μL of plasma samples was added 300 μL of acetonitrile containing internal standard (propranolol, 25 ng/mL) to precipitate the protein. After vortexing for 10 minutes and centrifuging at 6000 g and 4° C. for 10 minutes, the supernatant was taken and placed in a 96-well plate for determination of drug concentration in plasma by UPLC/MS-MS.

TNF-α = assay: Lipopolysaccharide (LPS)-induced inflammation model in mice, TNF-α in serum by ELISA; assay type: in vivo, C57BL/6J mice
Procedure: Male SPF-grade C57BL/6J mice, 6-8 weeks old, provided by Shanghai Ling Chang Biotechnology Co., Ltd. Animals were housed in clean-grade plastic cages (light and dark cycle 12/12 hours, temperature 22±2° C., humidity 50±10%, pellet feed, free drinking water).
1. Mice were weighed and administered according to an administration volume of 10 mL/kg, and oral administration by gavage was given for the first time. Each mouse was administrated at an interval of 3 minutes.
2. One hour after the first administration, LPS 5 mpk was administered intraperitoneally at an administration volume of 10 mL/kg.
3. 4 hours after the first administration, a second oral administration by gavage was given according to the administration volume of 10 mL/kg.
4. 6 hours after LPS intraperitoneal injection, mice were sacrificed, serum and cerebral cortex and hippocampus were sampled. After weighing the wet weight and they were put into liquid nitrogen for quick-freezing and storage.

[2] = Pharmacokinetic properties in rats; assay type: in vivo, SD rats; details: rat
Procedure: Ten male SD rats, weighing 180-220 g (provided by Shanghai Xipuerbikai Laboratory Animal Co., Ltd, Certificate No.: 20130016008116). The rats were fasted for feed for 12-16 hours before the experiment but water was allowed.
Blood samples were collected from the fundus vein of rats before and at 2, 5, 15, 30, 60, 90, 120, 240, 360, 480, 600 and 1440 minutes after administration, respectively.
Blood samples were collected from the fundus vein of rats before and at 5, 15, 30, 60, 90, 120, 240, 360, 480, 600, 1440 minutes after administration respectively.
as §1

BV-2 cells = assay: Inhibition of inflammation in LPS-stimulated BV-2 cells (ELISA of inflammatory factors); assay type: cell-based; details: Mus musculus, 100 ng/mL LPS 4 hours
Procedure: Normal cultured 8th passage BV-2 cells were taken, and inoculated separately in 96-well plates at a certain cell density. The cell culture plates were cultured at 37° C. and 5% CO2 for 24 hours.
After inoculating the plate for 24 hours, the cell culture medium was removed, and then 100 μL of a 4-fold gradient dilution compound starting from 10,000 nM prepared in DMEM+10% FBS, where High control and Low control contained 0.1% DMSO without compound. With 100 μL per well, the cell culture plate was cultured at 37° C. with 5% CO2 for one hour.
The compound-containing cultures were removed. 100 ng/mL of LPS was prepared with DMEM+10% FBS culture medium, and then the compound was diluted in a 4-fold gradient from 10,000 nM with LPS-containing culture medium. In low control, the compound was replaced with 0.1% DMSO. In High control, 0.1% DMSO was prepared with culture medium without LPS. 100 μL per well, and the cell culture plates were cultured at 37° C. with 5% CO2 for 4 hours.
After 4 hours of LPS stimulation, 110 μL of the culture solution was aspirated, and centrifuged at 2000 rpm for 2 minutes. A further 90 μl of supernatant was aspirated and immediately put into −20° C. for freezing.
ELISA kits were used to detect the expression of inflammatory factors such as IL-10, TNFα, etc. The OD450 signal values were measured by microplate reader. The in vitro inhibitory activity of the compounds was calculated according to the following formula: Inhibition rate: Inhibition rate (%)=(signal value of control−signal value of administration)/(high signal value of control−low signal value of control)×100%. And according to the inhibition rate of each concentration, Graphpad Prism 5.0 was used to curve fit the […] signal values at each concentration and calculate the corresponding IC50, which is shown in Table 1.

[3] = male, ICR, mouse, plasma, po 10 mg/kg

SMILES: O=c1ncn2nc(Sc3ccc(F)cc3)ccc2c1-c1c(Cl)cccc1Cl [compound 12]
IC50 (p38 kinase): 100 to 1000 nM

Thalf (iv) ([1]; iv 3 mg/kg): 3.9 h
clearance ([1]; male, ICR, mouse, plasma, iv 3 mg/kg): 18.3 mL/min/kg
Vd ([1]; male, ICR, mouse, plasma, iv 3 mg/kg, read-out: Vss (iv)): 2.3 L/kg
Cmax [1, 3]: 750 ng/mL
MRT [1, 3]: 3.2 h
Tmax [1, 3]: 48 min
BA ([1]; po 10 mg/kg vs iv 3 mg/kg): 20.2%
AUClast (po) ([1]; po 10 mg/kg, 5-1440 minutes): 1844 (h)*(ng/mL)
clearance ([2]; male, SD, plasma, iv 3 mg/kg): 25 mL/min/kg
Vd ([2]; male, SD, plasma, iv 3 mg/kg, read-out: Vss (iv)): 4.5 L/kg
Cmax ([2]; male, SD, plasma, po 6 mg/kg): 476 ng/mL
MRT ([2]; male, SD, plasma, po 6 mg/kg): 4.3 h
Tmax ([2]; male, SD, plasma, po 6 mg/kg): 48 min
Thalf (iv) ([2]; iv 3 mg/kg): 5.2 h
BA ([2]; po 6 mg/kg vs iv 3 mg/kg): 41.2%
AUClast (po) ([2]; po 6 mg/kg, 5-1440 minutes): 1644.5 (h)*(ng/mL)
IC50 (BV-2 cells; read-out: BV-2 Rf IC50): 4.26 nM
SMILES: O=c1ncn2nc(Sc3ccc(F)cc3F)ccc2c1-c1c(Cl)cccc1Cl [VX-745, reference compound]
levels of TNF-α compared with the mouse inflammation model group (G2) (TNF-α; 8 mpk, P<0.01): significantly reduced
TNF-α conc. (TNF-α; serum, individual animals, 8 mg/kg po bid interval 4 h, 6 hours after LPS 5 mpk ip): 142.0 pg/mL and 151.7 pg/mL and 105.5 pg/mL and 155.5 pg/mL and 55.4 pg/mL and 105.7 pg/mL and 54.3 pg/mL and 71.2 pg/mL and 24.0 pg/mL and 155.2 pg/mL
Emax (BV-2 cells; read-out: BV-2 Max Inh. (%)): 99.7%
